Data reported in ChEMBL document CHEMBL1201862, “PubChem BioAssay data set” (2004).
Activity calls are given as the source filed them.

Legend:
[1] = biological target: Latent membrane protein 1 (Human herpesvirus 4 (strain B95-8), UniProt P03230); experiment: LMP1 TES1 pathway selectivity over dsRED control – imaging, HEK293T, dual-color eGFP/dsRED, cherry-picks, selectivity assay for LMP1 NF-kB inhibitor project, dose response (AID 588398); type: functional, cell-based
[2] = biological target: T1, DNA repair protein RAD52 homolog (Homo sapiens, UniProt P43351); type: functional, biochemical
T1 sequence (P43351 whole entry): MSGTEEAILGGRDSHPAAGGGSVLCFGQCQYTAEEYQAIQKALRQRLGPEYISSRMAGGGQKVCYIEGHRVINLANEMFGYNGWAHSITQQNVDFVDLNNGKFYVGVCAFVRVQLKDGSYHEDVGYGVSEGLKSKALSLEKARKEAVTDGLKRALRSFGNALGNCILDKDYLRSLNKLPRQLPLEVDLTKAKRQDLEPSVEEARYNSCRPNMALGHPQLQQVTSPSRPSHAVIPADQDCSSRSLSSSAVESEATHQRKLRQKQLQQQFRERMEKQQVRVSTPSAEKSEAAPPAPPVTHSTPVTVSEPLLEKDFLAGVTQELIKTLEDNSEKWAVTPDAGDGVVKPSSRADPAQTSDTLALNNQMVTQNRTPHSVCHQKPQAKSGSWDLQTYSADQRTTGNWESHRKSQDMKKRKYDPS

[3] = biological target: Botulinum neurotoxin type A (Clostridium botulinum (strain Hall / ATCC 3502 / NCTC 13319 / Type A), UniProt P0DPI1); experiment: High-throughput multiplex microsphere dose response for inhibitors of toxin protease, specifically Botulinum neurotoxin light chain A protease, compounds from Cherry Pick 01.; type: functional; conditions: read-out: EC50_MICROM
[4] = loss of viability in HepG2 cells – cell-based, CellTiter-Glo, cherry-picked, cytotoxicity control for Shn3 inhibitor project, dose response (AID 624134); type: functional
[5] = biological target: Luciferin 4-monooxygenase (Photuris pensylvanica, UniProt Q27757); experiment: inhibition of Cell Titer Glo luciferase signal – biochemical, luminescence, cherry-picks, counter-screen for HSF-1 reporter inhibitor project, dose response (AID 588847)
[6] = viability loss in HEK293 cells – cell-based, plate reader, cherry-picked samples, cytotoxicity control, dose response (AID 743446); type: functional
[7] = biological target: T2, Protein skinhead-1 (Caenorhabditis elegans, UniProt P34707); type: functional
T2 sequence (P34707 whole entry): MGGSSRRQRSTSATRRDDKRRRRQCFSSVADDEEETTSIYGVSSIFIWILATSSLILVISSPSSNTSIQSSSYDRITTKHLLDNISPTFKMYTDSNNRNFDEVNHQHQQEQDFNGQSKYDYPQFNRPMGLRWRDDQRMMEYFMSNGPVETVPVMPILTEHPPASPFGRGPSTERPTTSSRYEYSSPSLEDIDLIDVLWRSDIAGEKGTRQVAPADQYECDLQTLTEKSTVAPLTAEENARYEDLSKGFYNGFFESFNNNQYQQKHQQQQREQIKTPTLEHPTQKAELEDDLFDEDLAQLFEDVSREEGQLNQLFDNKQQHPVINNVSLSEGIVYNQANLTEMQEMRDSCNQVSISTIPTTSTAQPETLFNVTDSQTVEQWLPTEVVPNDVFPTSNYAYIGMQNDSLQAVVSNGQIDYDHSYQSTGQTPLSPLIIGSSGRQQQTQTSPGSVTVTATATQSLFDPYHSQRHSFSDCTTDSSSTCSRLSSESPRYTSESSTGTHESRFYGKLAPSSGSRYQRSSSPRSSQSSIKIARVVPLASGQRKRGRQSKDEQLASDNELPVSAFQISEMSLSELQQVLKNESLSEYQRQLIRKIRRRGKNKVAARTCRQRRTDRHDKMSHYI

[8] = non-specific 3'UTR reporter inhibition in Clone20-Shn3RL – cell-based, Renilla luciferase, cherry-picked, counter-screen for Shn3 inhibitor project, dose response (AID 624133); type: functional
[9] = blockers of bursicon-stimulated LGR2 cAMP reporter – cell-based, HEK293, CRE-luciferase reporter, cherry pick, set 2, dose response (AID 743343); type: functional;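 further: transfected cells were stimulated with diluted bursicon conditioned medium after compound addition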
[10] = blockade of melanocortin 4 receptor signaling – cell-based, plate reader, cherry pick, counter-screen for LGR2 antagonist project, dose response (AID 743444); type: functional;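 further: transfected HEK 293 cells stimulated with alpha-MSH peptide; potency of inhibitors of the alpha-MSH evoked signal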
[11] = biological target: Paired box protein Pax-8 (Homo sapiens, UniProt Q06710); experiment: PAX8 transcriptional activity inhibition in RMG-I – RMG-I cells, luciferase, cherry-pick, dose response (AID 687027); type: functional, cell-based;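 further: luciferase reporter driven by Pax8 target thyroperoxidase promoter measured by SteadyGlo luminescence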
[12] = test system: Jurkat; experiment: blockers of NF-kB activation in T cells – Jurkat, luciferase reporter, luminescence, B- and T-cell, dose response (AID 489004); type: functional, cell-based; conditions: Homo sapiens;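 further: NF-kB luciferase reporter Jurkat cells stimulated with PMA plus ionomycin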
[13] = HEK-293T viability loss, compound-treated – cell-based, uHTS hits, cytotoxicity control for B/T-cell NF-kB inhibitor project, dose response (AID 489019); type: functional;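 further: IC50 reflects cytotoxicity as loss of cell viability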
[14] = reduction of Shn3 3'UTR-driven luciferase in osteoblasts – cell-based, Clone20 osteoblasts, firefly luciferase, cherry-picked, dose response (AID 624132); type: functional;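 further: firefly luciferase luminescence from reporter carrying the Shn3 3'UTR in osteoblasts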
[15] = toxicity toward HepG2 liver cells – cell-based, plate reader, cherry-pick, antagonist series, cytotoxicity control, dose response (AID 743416); type: functional
[16] = biological target: T3, Heat shock factor protein 1 (Mus musculus, UniProt P38532); experiment: decrease of HSF1-responsive luciferase luminescence – cell-based, NIH3T3, dose retest, confirmation (AID 2382); type: functional;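 further: NIH3T3 fibroblasts with HSF1-driven luciferase reporter stressed by proteasome inhibitor MG132; luminescence from HSF1-driven luciferase expression after 8 hours of MG132 stress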
T3 sequence (P38532 whole entry): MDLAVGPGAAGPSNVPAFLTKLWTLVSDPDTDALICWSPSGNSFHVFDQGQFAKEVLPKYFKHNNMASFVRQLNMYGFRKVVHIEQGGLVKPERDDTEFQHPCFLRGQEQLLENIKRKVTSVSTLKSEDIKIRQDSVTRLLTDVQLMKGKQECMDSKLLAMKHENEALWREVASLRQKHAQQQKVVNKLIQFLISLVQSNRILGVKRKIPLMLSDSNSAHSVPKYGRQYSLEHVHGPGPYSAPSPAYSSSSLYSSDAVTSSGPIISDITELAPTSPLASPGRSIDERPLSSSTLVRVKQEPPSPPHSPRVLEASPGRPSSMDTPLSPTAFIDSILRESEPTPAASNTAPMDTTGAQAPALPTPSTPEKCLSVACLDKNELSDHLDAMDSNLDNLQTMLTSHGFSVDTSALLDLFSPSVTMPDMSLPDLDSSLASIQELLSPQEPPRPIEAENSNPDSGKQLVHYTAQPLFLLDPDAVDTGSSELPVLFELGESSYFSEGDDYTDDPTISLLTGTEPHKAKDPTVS

[17] = Luminescence Cell-Based Dose Retest to Confirm Inhibitors of Cancer Stem Cells. [Related pubchem assays (depositor defined):AID2717, AID2721]; type: functional; conditions: Homo sapiens
[18] = biological target: DNA topoisomerase (Yersinia pestis, UniProt A0A2S9PM60); experiment: Yersinia topoisomerase I cleavage product accumulation – biochemical, cherry-pick, dose response (AID 588525)
[19] = test system: INS1; experiment: INS-1E survival protection against cytokine death – cell-based, luminescence, retest, dose response (AID 449756); type: functional; conditions: Rattus norvegicus;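 further: cell death triggered by IL-1 beta plus TNF-alpha plus IFN-gamma mixture; protective hits raise ATP signal compared with cytokine alone wells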

Chain of Luciferin 4-monooxygenase (Q27757 whole entry): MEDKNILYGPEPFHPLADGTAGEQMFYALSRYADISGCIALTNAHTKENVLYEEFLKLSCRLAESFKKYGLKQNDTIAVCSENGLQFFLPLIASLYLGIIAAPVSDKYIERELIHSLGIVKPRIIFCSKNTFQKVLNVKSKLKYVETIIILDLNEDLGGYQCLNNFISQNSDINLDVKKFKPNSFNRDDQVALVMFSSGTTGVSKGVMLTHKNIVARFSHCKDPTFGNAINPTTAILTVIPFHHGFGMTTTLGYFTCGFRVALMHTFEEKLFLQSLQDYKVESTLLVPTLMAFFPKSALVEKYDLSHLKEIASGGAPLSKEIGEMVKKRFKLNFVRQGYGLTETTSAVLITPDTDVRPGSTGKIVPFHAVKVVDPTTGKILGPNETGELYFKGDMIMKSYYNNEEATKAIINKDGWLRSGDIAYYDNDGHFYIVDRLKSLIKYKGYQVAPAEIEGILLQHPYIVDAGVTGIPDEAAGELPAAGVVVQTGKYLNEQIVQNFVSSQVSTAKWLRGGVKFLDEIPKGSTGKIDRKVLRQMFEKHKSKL
Chain of Latent membrane protein 1 (P03230 whole entry): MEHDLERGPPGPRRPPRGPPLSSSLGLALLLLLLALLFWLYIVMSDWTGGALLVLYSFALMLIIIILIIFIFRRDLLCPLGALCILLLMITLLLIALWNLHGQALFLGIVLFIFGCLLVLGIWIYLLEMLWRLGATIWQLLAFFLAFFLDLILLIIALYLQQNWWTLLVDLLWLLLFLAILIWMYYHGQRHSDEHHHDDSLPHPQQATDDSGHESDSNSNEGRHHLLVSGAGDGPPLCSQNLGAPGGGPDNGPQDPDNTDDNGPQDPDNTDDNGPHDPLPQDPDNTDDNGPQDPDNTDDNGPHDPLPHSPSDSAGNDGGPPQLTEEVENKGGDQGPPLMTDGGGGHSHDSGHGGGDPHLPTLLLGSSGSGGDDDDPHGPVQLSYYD
Chain of DNA topoisomerase (A0A2S9PM60 whole entry): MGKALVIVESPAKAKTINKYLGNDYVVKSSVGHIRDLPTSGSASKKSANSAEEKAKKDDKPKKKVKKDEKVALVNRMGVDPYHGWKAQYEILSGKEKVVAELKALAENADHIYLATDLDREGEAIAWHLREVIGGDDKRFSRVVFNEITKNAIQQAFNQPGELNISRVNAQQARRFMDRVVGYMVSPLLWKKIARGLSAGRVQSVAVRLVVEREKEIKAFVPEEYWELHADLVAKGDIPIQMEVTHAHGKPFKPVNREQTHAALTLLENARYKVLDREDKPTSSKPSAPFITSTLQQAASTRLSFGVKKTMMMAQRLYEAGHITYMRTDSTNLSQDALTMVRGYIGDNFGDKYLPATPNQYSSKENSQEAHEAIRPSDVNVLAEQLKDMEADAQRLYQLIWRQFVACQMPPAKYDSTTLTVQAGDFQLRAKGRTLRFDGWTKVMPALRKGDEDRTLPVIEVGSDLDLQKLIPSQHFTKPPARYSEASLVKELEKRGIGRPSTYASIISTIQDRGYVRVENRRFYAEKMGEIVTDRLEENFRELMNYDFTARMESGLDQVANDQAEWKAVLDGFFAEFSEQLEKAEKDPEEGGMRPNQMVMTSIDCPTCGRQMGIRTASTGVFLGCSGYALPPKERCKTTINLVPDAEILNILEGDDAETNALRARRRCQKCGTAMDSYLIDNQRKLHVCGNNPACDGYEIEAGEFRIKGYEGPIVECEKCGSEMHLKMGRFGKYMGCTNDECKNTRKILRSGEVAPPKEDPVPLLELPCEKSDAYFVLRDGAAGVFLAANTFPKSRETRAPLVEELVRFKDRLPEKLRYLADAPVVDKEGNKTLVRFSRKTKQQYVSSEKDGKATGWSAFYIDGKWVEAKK
Chain of Botulinum neurotoxin type A (P0DPI1 2-448 limits assumed): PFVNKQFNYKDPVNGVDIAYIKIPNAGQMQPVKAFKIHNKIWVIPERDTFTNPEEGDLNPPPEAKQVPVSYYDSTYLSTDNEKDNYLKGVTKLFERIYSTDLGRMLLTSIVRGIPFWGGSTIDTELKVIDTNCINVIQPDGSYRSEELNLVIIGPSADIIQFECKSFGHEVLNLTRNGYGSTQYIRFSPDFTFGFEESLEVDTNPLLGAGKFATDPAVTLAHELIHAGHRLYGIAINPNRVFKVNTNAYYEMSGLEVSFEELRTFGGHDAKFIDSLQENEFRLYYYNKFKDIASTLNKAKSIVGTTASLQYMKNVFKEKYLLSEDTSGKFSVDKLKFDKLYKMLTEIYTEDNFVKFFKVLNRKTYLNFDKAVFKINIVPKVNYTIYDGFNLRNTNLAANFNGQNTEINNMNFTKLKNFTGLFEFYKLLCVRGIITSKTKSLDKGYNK
Chain of Paired box protein Pax-8 (Q06710 whole entry): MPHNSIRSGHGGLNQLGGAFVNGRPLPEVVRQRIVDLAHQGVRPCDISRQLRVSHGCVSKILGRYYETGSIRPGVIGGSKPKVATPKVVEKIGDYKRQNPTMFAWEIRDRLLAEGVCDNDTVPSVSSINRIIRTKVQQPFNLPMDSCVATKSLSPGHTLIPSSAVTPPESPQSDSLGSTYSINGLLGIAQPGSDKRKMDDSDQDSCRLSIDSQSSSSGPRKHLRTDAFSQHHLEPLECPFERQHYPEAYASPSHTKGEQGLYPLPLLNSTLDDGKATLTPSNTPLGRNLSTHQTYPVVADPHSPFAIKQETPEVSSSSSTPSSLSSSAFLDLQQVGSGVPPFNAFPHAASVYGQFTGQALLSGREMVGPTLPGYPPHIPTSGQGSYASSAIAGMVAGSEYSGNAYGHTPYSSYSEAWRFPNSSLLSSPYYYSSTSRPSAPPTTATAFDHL

In the case of `CC1(C)N=C(N)N=C(N)N1c1ccc(CCCCc2ccccc2)cc1`, the AC50 [1] is reported as 28.9 µM (active) and the AC50 [2] is reported as 11.2 µM (active).

In the case of `CSc1nnc2c(n1)c(C)nn2-c1cccc(C)c1`, the EC50 [3] is reported as 6.4 µM (active).

With `CN(C(=O)OC(C)(C)C)c1ccc(-c2nc3ccccc3s2)cc1` the AC50 [4] was > 70 µM (inactive), the AC50 [5] was 1.42 µM (active) and the AC50 [6] was 46.5 µM (active). The IC50 [7] was > 100 µM (inactive), the AC50 [8] was 7.35 µM (active) and the AC50 [9] was < 0.068 µM (active). The AC50 [10] was < 0.068 µM (active), the AC50 [11] was 0.379 µM (active) and the IC50 [12] was < 0.16 µM (active). The IC50 [13] was > 80 µM (inactive), the AC50 [14] was < 0.26 µM (active) and the AC50 [15] was > 52 µM (inactive). The EC50 [16] was < 0.16 µM (active).

For `O=C(NCCN(CCNC(=O)c1nc[nH]c1C(=O)Nc1ccc(Cl)cc1)CCNC(=O)c1nc[nH]c1C(=O)Nc1ccc(Cl)cc1)c1nc[nH]c1C(=O)Nc1ccc(Cl)cc1`, the AC50 [17] was 1.67 µM (active), the AC50 [18] was 6.39 µM (active) and the AC50 [19] was 7.12 µM (active).
